Tested on: NCI-H460 tumor
Assay: In vivo biodistribution in NCI-H460 tumor bearing mice
Design: Summary: organs / Summary: Carcass / Summary: faeces: unit not given here
Conditions: for Summary: urine: in %; for Summary: Recovery: in % (unit assumed)
Outline: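 Biodistribution of 18F-labeled compounds was assessed in female NMRI (nu/nu) mice bearing NCI-H460 tumors, established by inoculating 5×10^6 cells 8 to 10 days beforehand. Each mouse received 185 kBq of the fluorinated tracer; at least n=3 animals per time point were sacrificed, organs excised, and radioactivity quantified with a γ-counter.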

## N[C@@H](CCC(Cc1ccc(OCC[18F])cc1)C(=O)O)C(=O)O (stereo partly drawn) [[^18F]-12] [(2S)-2-Amino-5-[4-(2-[^18F]fluoroethoxy)benzyl]hexanedioic acid]
0.25 h p.i.
  Pancreas uptake (% ID/g): 11.45 % ID/g
1 h p.i.
  Pancreas (% ID/g at 1 h p.i.): 3.62 % ID/g
  Tumor (% ID/g at 1 h p.i.): 6.47 % ID/g
  Urine (% ID at 1 h p.i.): 82.1 ± 7.3 % ID
  activity excreted (kidneys/urine): 82.1%
  tumor-to-pancreas ratio: 1.8
1 h post injection
  T/Blood: 33.9
  T/Muscle: 103.4
2 h p.i.
  Tumor uptake (% ID/g): 7.21 % ID/g
4 h p.i.
  Tumor uptake (% ID/g): 5.17 % ID/g
mouse, in vivo
  tumor uptake and retention (summary statement): high tumor uptake and retention
Timepoint 0.25 h
  Adrenals (% Dosis/g): 0.69 % Dosis/g
  Blood (% Dosis/g): 1.28 % Dosis/g
  Bone (% Dosis/g): 0.39 % Dosis/g
  Brain (% Dosis/g): 0.09 % Dosis/g
  Fat (% Dosis/g): 0.16 % Dosis/g
  Gallbladder (% Dosis/g): 2.53 % Dosis/g
  Heart (% Dosis/g): 0.58 % Dosis/g
  Intestine (% Dosis/g): 1.10 % Dosis/g
  Liver (% Dosis/g): 9.02 % Dosis/g
  Muscle (% Dosis/g): 0.26 % Dosis/g
  Ovaries (% Dosis/g): 1.25 % Dosis/g
  Pancreas (% Dosis/g): 11.45 % Dosis/g
  Skin (% Dosis/g): 1.58 % Dosis/g
  Spleen (% Dosis/g): 2.49 % Dosis/g
  Stomach (% Dosis/g): 3.08 % Dosis/g
  Summary: Carcass: 9.55
  Summary: organs: 36.92
  Tail (% Dosis/g): 3.02 % Dosis/g
  Thyroid (% Dosis/g): 0.78 % Dosis/g
  Tumor (% Dosis/g): 5.55 % Dosis/g
  Tumor/Tissue: Adrenals: 8.53
  Tumor/Tissue: Blood: 4.49
  Tumor/Tissue: Bone: 14.61
  Tumor/Tissue: Brain: 62.27
  Tumor/Tissue: Fat: 37.81
  Tumor/Tissue: Gallbladder: 2.19
  Tumor/Tissue: Heart: 9.67
  Tumor/Tissue: Intestine: 4.93
  Tumor/Tissue: Kidney: 0.36
  Tumor/Tissue: Liver: 0.62
  Tumor/Tissue: Lung: 3.79
  Tumor/Tissue: Muscle: 20.90
  Tumor/Tissue: Ovaries: 4.55
  Tumor/Tissue: Pancreas: 0.49
  Tumor/Tissue: Skin: 3.71
  Tumor/Tissue: Spleen: 2.27
  Tumor/Tissue: Stomach: 1.75
  Tumor/Tissue: Thyroid: 7.48
  Tumor/Tissue: Uterus: 2.31
  Uterus (% Dosis/g): 2.54 % Dosis/g
  Summary: urine: 50.49
  Summary: Recovery: 96.96
Timepoint 0.5 h
  Adrenals (% Dosis/g): 0.57 % Dosis/g
  Blood (% Dosis/g): 0.74 % Dosis/g
  Bone (% Dosis/g): 0.30 % Dosis/g
  Brain (% Dosis/g): 0.07 % Dosis/g
  Fat (% Dosis/g): 0.12 % Dosis/g
  Gallbladder (% Dosis/g): 5.25 % Dosis/g
  Heart (% Dosis/g): 0.38 % Dosis/g
  Intestine (% Dosis/g): 4.00 % Dosis/g
  Liver (% Dosis/g): 5.93 % Dosis/g
  Muscle (% Dosis/g): 0.15 % Dosis/g
  Ovaries (% Dosis/g): 1.06 % Dosis/g
  Pancreas (% Dosis/g): 9.94 % Dosis/g
  Skin (% Dosis/g): 1.08 % Dosis/g
  Spleen (% Dosis/g): 1.94 % Dosis/g
  Stomach (% Dosis/g): 4.18 % Dosis/g
  Summary: Carcass: 7.31
  Summary: faeces: 0.10
  Summary: organs: 33.35
  Tail (% Dosis/g): 1.81 % Dosis/g
  Thyroid (% Dosis/g): 0.65 % Dosis/g
  Tumor (% Dosis/g): 6.91 % Dosis/g
  Tumor/Tissue: Adrenals: 13.61
  Tumor/Tissue: Blood: 9.81
  Tumor/Tissue: Bone: 22.54
  Tumor/Tissue: Brain: 92.44
  Tumor/Tissue: Fat: 64.26
  Tumor/Tissue: Gallbladder: 1.36
  Tumor/Tissue: Heart: 20.04
  Tumor/Tissue: Intestine: 4.66
  Tumor/Tissue: Kidney: 0.79
  Tumor/Tissue: Liver: 1.27
  Tumor/Tissue: Lung: 7.67
  Tumor/Tissue: Muscle: 45.35
  Tumor/Tissue: Ovaries: 6.59
  Tumor/Tissue: Pancreas: 0.68
  Tumor/Tissue: Skin: 6.42
  Tumor/Tissue: Spleen: 3.60
  Tumor/Tissue: Stomach: 2.18
  Tumor/Tissue: Thyroid: 10.73
  Tumor/Tissue: Uterus: 5.85
  Uterus (% Dosis/g): 1.38 % Dosis/g
  Summary: urine: 57.06
  Summary: Recovery: 97.82
Timepoint 1.0 h
  Adrenals (% Dosis/g): 0.27 % Dosis/g
  Blood (% Dosis/g): 0.19 % Dosis/g
  Bone (% Dosis/g): 0.16 % Dosis/g
  Brain (% Dosis/g): 0.05 % Dosis/g
  Fat (% Dosis/g): 0.03 % Dosis/g
  Gallbladder (% Dosis/g): 8.20 % Dosis/g
  Heart (% Dosis/g): 0.11 % Dosis/g
  Intestine (% Dosis/g): 0.91 % Dosis/g
  Liver (% Dosis/g): 2.17 % Dosis/g
  Muscle (% Dosis/g): 0.07 % Dosis/g
  Ovaries (% Dosis/g): 0.79 % Dosis/g
  Pancreas (% Dosis/g): 3.62 % Dosis/g
  Skin (% Dosis/g): 0.61 % Dosis/g
  Spleen (% Dosis/g): 1.54 % Dosis/g
  Stomach (% Dosis/g): 0.94 % Dosis/g
  Summary: Carcass: 3.58
  Summary: faeces: 0.01
  Summary: organs: 12.93
  Tail (% Dosis/g): 0.41 % Dosis/g
  Thyroid (% Dosis/g): 0.29 % Dosis/g
  Tumor (% Dosis/g): 6.47 % Dosis/g
  Tumor/Tissue: Adrenals: 23.74
  Tumor/Tissue: Blood: 33.90
  Tumor/Tissue: Bone: 41.80
  Tumor/Tissue: Brain: 142.1
  Tumor/Tissue: Fat: 302.3
  Tumor/Tissue: Gallbladder: 0.88
  Tumor/Tissue: Heart: 58.14
  Tumor/Tissue: Intestine: 7.45
  Tumor/Tissue: Kidney: 3.12
  Tumor/Tissue: Liver: 2.99
  Tumor/Tissue: Lung: 18.22
  Tumor/Tissue: Muscle: 103.4
  Tumor/Tissue: Ovaries: 8.99
  Tumor/Tissue: Pancreas: 1.82
  Tumor/Tissue: Skin: 10.56
  Tumor/Tissue: Spleen: 4.32
  Tumor/Tissue: Stomach: 6.88
  Tumor/Tissue: Thyroid: 22.49
  Tumor/Tissue: Uterus: 8.25
  Uterus (% Dosis/g): 0.97 % Dosis/g
  Summary: urine: 82.05
  Summary: Recovery: 98.57
Timepoint 2.0 h
  Adrenals (% Dosis/g): 0.27 % Dosis/g
  Blood (% Dosis/g): 0.08 % Dosis/g
  Bone (% Dosis/g): 0.14 % Dosis/g
  Brain (% Dosis/g): 0.05 % Dosis/g
  Fat (% Dosis/g): 0.02 % Dosis/g
  Gallbladder (% Dosis/g): 8.93 % Dosis/g
  Heart (% Dosis/g): 0.06 % Dosis/g
  Intestine (% Dosis/g): 1.12 % Dosis/g
  Liver (% Dosis/g): 0.87 % Dosis/g
  Muscle (% Dosis/g): 0.05 % Dosis/g
  Ovaries (% Dosis/g): 0.54 % Dosis/g
  Pancreas (% Dosis/g): 1.48 % Dosis/g
  Skin (% Dosis/g): 0.43 % Dosis/g
  Spleen (% Dosis/g): 1.29 % Dosis/g
  Stomach (% Dosis/g): 0.46 % Dosis/g
  Summary: Carcass: 5.26
  Summary: faeces: 1.74
  Summary: organs: 8.77
  Tail (% Dosis/g): 1.44 % Dosis/g
  Thyroid (% Dosis/g): 0.26 % Dosis/g
  Tumor (% Dosis/g): 7.21 % Dosis/g
  Tumor/Tissue: Adrenals: 27.83
  Tumor/Tissue: Blood: 86.51
  Tumor/Tissue: Bone: 57.86
  Tumor/Tissue: Brain: 161.0
  Tumor/Tissue: Fat: 396.0
  Tumor/Tissue: Gallbladder: 0.81
  Tumor/Tissue: Heart: 126.5
  Tumor/Tissue: Intestine: 6.58
  Tumor/Tissue: Kidney: 11.24
  Tumor/Tissue: Liver: 8.46
  Tumor/Tissue: Lung: 29.67
  Tumor/Tissue: Muscle: 169.9
  Tumor/Tissue: Ovaries: 13.81
  Tumor/Tissue: Pancreas: 4.90
  Tumor/Tissue: Skin: 39.91
  Tumor/Tissue: Spleen: 5.82
  Tumor/Tissue: Stomach: 16.25
  Tumor/Tissue: Thyroid: 35.78
  Tumor/Tissue: Uterus: 15.37
  Uterus (% Dosis/g): 0.50 % Dosis/g
  Summary: urine: 83.35
  Summary: Recovery: 99.00
Timepoint 4.0 h
  Adrenals (% Dosis/g): 0.16 % Dosis/g
  Blood (% Dosis/g): 0.04 % Dosis/g
  Bone (% Dosis/g): 0.06 % Dosis/g
  Brain (% Dosis/g): 0.02 % Dosis/g
  Fat (% Dosis/g): 0.01 % Dosis/g
  Gallbladder (% Dosis/g): 6.45 % Dosis/g
  Heart (% Dosis/g): 0.04 % Dosis/g
  Intestine (% Dosis/g): 0.93 % Dosis/g
  Muscle (% Dosis/g): 0.03 % Dosis/g
  Ovaries (% Dosis/g): 0.24 % Dosis/g
  Pancreas (% Dosis/g): 0.27 % Dosis/g
  Skin (% Dosis/g): 0.37 % Dosis/g
  Spleen (% Dosis/g): 0.59 % Dosis/g
  Stomach (% Dosis/g): 0.21 % Dosis/g
  Summary: Carcass: 1.09
  Summary: faeces: 0.25
  Summary: organs: 6.12
  Tail (% Dosis/g): 0.55 % Dosis/g
  Thyroid (% Dosis/g): 0.08 % Dosis/g
  Tumor (% Dosis/g): 5.17 % Dosis/g
  Tumor/Tissue: Adrenals: 41.62
  Tumor/Tissue: Blood: 148.1
  Tumor/Tissue: Bone: 91.73
  Tumor/Tissue: Brain: 237.6
  Tumor/Tissue: Fat: 2513
  Tumor/Tissue: Gallbladder: 1.11
  Tumor/Tissue: Heart: 153.2
  Tumor/Tissue: Intestine: 5.57
  Tumor/Tissue: Kidney: 28.19
  Tumor/Tissue: Liver: 18.60
  Tumor/Tissue: Lung: 227.5
  Tumor/Tissue: Muscle: 185.7
  Tumor/Tissue: Ovaries: 21.39
  Tumor/Tissue: Pancreas: 19.41
  Tumor/Tissue: Skin: 16.05
  Tumor/Tissue: Spleen: 8.58
  Tumor/Tissue: Stomach: 24.28
  Tumor/Tissue: Thyroid: 64.78
  Tumor/Tissue: Uterus: 23.55
  Uterus (% Dosis/g): 0.21 % Dosis/g
  Summary: urine: 92.66
  Summary: Recovery: 100.1
